Measurements: ChEMBL document CHEMBL1137006, “Optimization of the central linker of dicationic bis-benzimidazole anti-MRSA and anti-VRE agents” (2009)
≈ marks a conversion by molar mass, not a printed value.

Assays:
Format in all cases: functional
[1] = tested on: Staphylococcus aureus; assay: Antibacterial activity against Staphylococcus aureus ATCC 29213 by NCCLS method
[2] = tested on: Staphylococcus aureus; assay: Antibacterial activity against multi-drug resistant Staphylococcus aureus BAA-39 by NCCLS method
[3] = tested on: Staphylococcus aureus; assay: Antibacterial activity against methicillin-resistan Staphylococcus aureus ATCC 33591 by NCCLS method
[4] = tested on: Staphylococcus epidermidis; assay: Antibacterial activity against Staphylococcus epidermidis ATCC 12228 by NCCLS method
[5] = tested on: Staphylococcus epidermidis; assay: Antibacterial activity against methicillin-resistan Staphylococcus epidermidis ATCC 51625 by NCCLS method
[6] = tested on: Streptococcus pneumoniae; assay: Antibacterial activity against Streptococcus pneumoniae ATCC 6301 by NCCLS method
[7] = tested on: Enterococcus faecalis; assay: Antibacterial activity against vancomycin-resistant Enterococcus faecalis ATCC 51575 by NCCLS method
[8] = tested on: Enterococcus faecium; assay: Antibacterial activity against vancomycin-resistant Enterococcus faecium ATCC 700221 by NCCLS method
[9] = tested on: Bacillus subtilis; assay: Antibacterial activity against Bacillus subtilis ATCC 23857 by NCCLS method
[10] = tested on: Bacillus cereus; assay: Antibacterial activity against Bacillus cereus ATCC 11778 by NCCLS method
[11] = tested on: Bacteroides fragilis; assay: Antibacterial activity against Bacteroides fragilis ATCC 23745 by NCCLS method
[12] = tested on: Clostridium perfringens; assay: Antibacterial activity against Clostridium perfringens ATCC 10388 by NCCLS method

| SMILES | MIC [1] [µg/mL] | MIC [2] [µg/mL] | MIC [3] [µg/mL] | MIC [4] [µg/mL] | MIC [5] [µg/mL] | MIC [6] [µg/mL] | MIC [7] [µg/mL] | MIC [8] [µg/mL] | MIC [9] [µg/mL] | MIC [10] [µg/mL] | MIC [11] [µg/mL] | MIC [12] [µg/mL] |
| --- | --- | --- | --- | --- | --- | --- | --- | --- | --- | --- | --- | --- |
| CC1(C)S[C@@H]2[C@H](NC(=O)Cc3ccccc3)C(=O)N2[C@H]1C(=O)O [PENICILLIN G] | 1 (≈ 2.99 µM) | > 32 | > 32 | 32 (≈ 95.7 µM) | 32 (≈ 95.7 µM) | < 0.06 | 4 (≈ 12 µM) | > 32 | < 0.06 | > 4 | 4 (≈ 12 µM) | ≤ 0.12 |
| CC(C)NC(=N)c1ccc2[nH]c(-c3ccc(N(c4ccccc4)c4ccc(-c5nc6cc(C(=N)NC(C)C)ccc6[nH]5)cc4)cc3)nc2c1 | 1 (≈ 1.55 µM) | 0.5 (≈ 0.774 µM) | 0.5 (≈ 0.774 µM) | 0.25 (≈ 0.387 µM) | 0.25 (≈ 0.387 µM) | 0.12 (≈ 0.186 µM) | 0.5 (≈ 0.774 µM) | 0.12 (≈ 0.186 µM) | ≤ 0.06 | 0.12 (≈ 0.186 µM) | 4 (≈ 6.19 µM) | 1 (≈ 1.55 µM) |
| CC(C)NC(=N)c1ccc2[nH]c(-c3ccc(-c4ccc(-c5ccc(-c6nc7cc(C(=N)NC(C)C)ccc7[nH]6)cc5)o4)cc3)nc2c1 | > 32 | 32 (≈ 51.5 µM) | 2 (≈ 3.22 µM) | 4 (≈ 6.44 µM) | 2 (≈ 3.22 µM) | 0.12 (≈ 0.193 µM) | > 32 | 2 (≈ 3.22 µM) | 2 (≈ 3.22 µM) | 2 (≈ 3.22 µM) | > 32 | 1 (≈ 1.61 µM) |
| CC(C)NC(=N)c1ccc2[nH]c(-c3ccc(/C=C/c4ccc(-c5nc6cc(C(=N)NC(C)C)ccc6[nH]5)cc4)cc3)nc2c1 | 1 (≈ 1.72 µM) | 1 (≈ 1.72 µM) | 0.5 (≈ 0.861 µM) | 0.12 (≈ 0.207 µM) | 0.25 (≈ 0.43 µM) | 0.25 (≈ 0.43 µM) | 0.5 (≈ 0.861 µM) | 0.25 (≈ 0.43 µM) | 0.25 (≈ 0.43 µM) | 0.25 (≈ 0.43 µM) | 0.5 (≈ 0.861 µM) | 0.5 (≈ 0.861 µM) |
| CC(C)NC(=N)c1ccc2[nH]c(-c3ccc(CCc4ccc(-c5nc6cc(C(=N)NC(C)C)ccc6[nH]5)cc4)cc3)nc2c1 | 0.25 (≈ 0.429 µM) | 0.5 (≈ 0.858 µM) | 0.25 (≈ 0.429 µM) | < 0.06 | 0.12 (≈ 0.206 µM) | < 0.06 | 0.25 (≈ 0.429 µM) | 0.12 (≈ 0.206 µM) | 0.12 (≈ 0.206 µM) | 0.12 (≈ 0.206 µM) | 0.5 (≈ 0.858 µM) | 0.25 (≈ 0.429 µM) |
| CC(C)NC(=N)c1ccc2[nH]c(-c3ccc(Cc4ccc(-c5nc6cc(C(=N)NC(C)C)ccc6[nH]5)cc4)cc3)nc2c1 | 1 (≈ 1.76 µM) | 1 (≈ 1.76 µM) | 0.25 (≈ 0.44 µM) | 0.12 (≈ 0.211 µM) | 0.25 (≈ 0.44 µM) | < 0.06 | 0.25 (≈ 0.44 µM) | 0.12 (≈ 0.211 µM) | 0.25 (≈ 0.44 µM) | 0.25 (≈ 0.44 µM) | 1 (≈ 1.76 µM) | 1 (≈ 1.76 µM) |
| CN[C@H](CC(C)C)C(=O)N[C@H]1C(=O)N[C@@H](CC(N)=O)C(=O)N[C@H]2C(=O)N[C@H]3C(=O)N[C@H](C(=O)N[C@H](C(=O)O)c4cc(O)cc(O)c4-c4cc3ccc4O)[C@H](O)c3ccc(c(Cl)c3)Oc3cc2cc(c3O[C@@H]2O[C@H](CO)[C@@H](O)[C@H](O)[C@H]2O[C@H]2C[C@](C)(N)[C@H](O)[C@H](C)O2)Oc2ccc(cc2Cl)[C@H]1O [VANCOMYCIN] |  |  |  |  |  | 1 (≈ 0.69 µM) | > 32 | > 64 | 0.12 (≈ 0.0828 µM) |  | 4 (≈ 2.76 µM) | 0.12 (≈ 0.0828 µM) |
| CC(C)NC(=N)c1ccc2[nH]c(-c3ccc(NS(=O)(=O)c4ccc(-c5nc6cc(C(=N)NC(C)C)ccc6[nH]5)cc4)cc3)nc2c1 | > 32 | 16 (≈ 25.2 µM) | 16 (≈ 25.2 µM) | 2 (≈ 3.16 µM) | 4 (≈ 6.31 µM) | 1 (≈ 1.58 µM) | 2 (≈ 3.16 µM) | 4 (≈ 6.31 µM) | 2 (≈ 3.16 µM) | 2 (≈ 3.16 µM) | 2 (≈ 3.16 µM) | 4 (≈ 6.31 µM) |
